Measurements: PubChem BioAssay (NCI)
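Cultured in 96-well plates, cells were exposed to test compound for 48 hours across five concentrations. At the TGI there is no net growth.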

How the values were obtained:
Experiment in all cases: NCI tumour cell line growth inhibition, 48 h
P388 leukemia = tested on: P388 leukemia
P388/ADR leukemia = tested on: P388/ADR leukemia
SN12K1 renal = tested on: SN12K1 renal
RXF-631 renal = tested on: RXF-631 renal

In the case of `CN(C(=O)c1ccc(OCCCC(=O)O)c(Cl)c1Cl)C1CCCC1`, the TGI (P388 leukemia) was > 100 µM, the TGI (P388/ADR leukemia) was > 100 µM and the TGI (SN12K1 renal) was > 100 µM.

For `O=c1ccnc2ccc3n[nH][nH]c3c12`, the TGI (RXF-631 renal) was > 100 µM.

With `COc1c2c(cc3c1C(=O)Cc1ccc4c(c1CN(C)CC3)OCO4)OCO2` the TGI (RXF-631 renal) was > 100 µM.

For `CCOC(=O)C(=O)NC12CC3CC(CC(C3)C1)C2`, the TGI (RXF-631 renal) was > 100 µM.

In the case of `CSCCC(C(=O)O)N(CC1(O)OCC(O)C(O)C1O)N=O` (stereo unspecified), the TGI (RXF-631 renal) was > 100 µM.

With `CC1=C2C3OC(=O)C(C)C3CCC2(C)C=CC1=Nc1ccccc1` (stereo unspecified) the TGI (P388 leukemia) was > 100 µM, the TGI (P388/ADR leukemia) was > 100 µM and the TGI (SN12K1 renal) was > 100 µM.

`O=C1C=CC2(C=C1)C[C@H](NC(=O)OCc1ccccc1)C(=O)O2` showed a TGI (RXF-631 renal) of 40.8 µM.
